{"source": "patent US8293979B2", "about": "“Weed controller metabolism proteins, genes, thereof and use of the same” (Sumitomo Chemical Company, Limited, priority 2001, dated 2012)", "assay_in_all_cases": "Metabolism of compound (II) by a microorganism", "type_in_all_cases": "in vitro ADME", "details_in_all_cases": "compound (II) at 100 ppm, 7 to 8 days at 30° C.", "key": {"[1]": {"test_system": "Streptomyces argenteolus var. toyon ATCC21468t", "description": "(§1) The HPLC for content analysis in Examples 1, 41 and 42 and fraction purification of the compound was conducted under the conditions shown below.\n(§2) The various microorganisms shown in Tables 1 and 2 were grown in ISP2 agar medium (1.0% (w/v) malt extract, 0.4% (w/v) yeast extract, 0.4% (w/v) glucose, 2.0% (w/v) agar, pH 7.3). A “loopful” of the each microorganism was added to TGY medium (0.5% (w/v) tryptone, 0.5% (w/v) yeast extract, 0.1% (w/v) glucose, 0.01% (w/v) KH2PO4, pH 7.0) and incubated with shaking at 30° C. for 2 to 4 days. One-tenth milliliter (0.1 ml) of the obtained culture was incubated with shaking in 3 ml of sporulation medium (0.1% (w/v) of meat extract, 0.2% (w/v) tryptose, 1% glucose, pH 7.1) containing compound (II) at 100 ppm for 7 to 8 days at 30° C. Fifty microliters (50 μl) of 2N HCl was added to the resulting culture and this was extracted with 3 ml of ethyl acetate. The obtained ethyl acetate layer was analyzed on the HPLC. The concentration of compound (II) was reduced (column retention time of 23.9 minutes) and new peaks were detected for compounds at retention times of 21.6 minutes and 22.2 minutes (each referred to as metabolite (I) and metabolite (II))."}, "[2]": {"test_system": "Streptomyces scabies IFO3111", "description": "as §1, §2"}, "[3]": {"test_system": "Streptomyces kasugaensis ATCC15714", "description": "as §1, §2"}, "[4]": {"test_system": "Streptomyces argenteolus var. toyonakensis ATCC21468", "description": "as §1, §2"}, "[5]": {"test_system": "Streptomyces sp. SANK62585", "description": "as §1, §2"}, "[6]": {"test_system": "Streptomyces ornatus IFO13069t", "description": "as §1, §2"}, "[7]": {"test_system": "Streptomyces griseochromogenes ATCC14511", "description": "as §1, §2"}, "[8]": {"test_system": "Streptomyces thermocoerulescens IFO14273t", "description": "as §1, §2"}, "[9]": {"test_system": "Streptomyces globisporus subsp. globisporus ATCC21903", "description": "as §1, §2"}, "[10]": {"test_system": "Streptomyces hachijoensis IFO12782", "description": "as §1, §2"}, "[11]": {"test_system": "Streptomyces roseochromogenes ATCC13400", "description": "as §1, §2"}, "[12]": {"test_system": "Streptomyces testaceus ATCC21469", "description": "as §1, §2"}, "[13]": {"test_system": "Streptomyces roseochromogenes ATCC13400t", "description": "as §1, §2"}, "[14]": {"test_system": "Streptomyces catenulae IFO12848", "description": "as §1, §2"}, "[15]": {"test_system": "Streptomyces griseofuscus IFO12870t", "description": "as §1, §2"}, "[16]": {"test_system": "Streptomyces griseolus ATCC11796", "description": "as §1, §2"}, "[17]": {"test_system": "Streptomyces lavendulae ATCC11924", "description": "as §1, §2"}, "[18]": {"test_system": "Streptomyces roseochromogenus ATCC21895", "description": "as §1, §2"}, "[19]": {"test_system": "Streptomyces nogalater IFO13445", "description": "as §1, §2"}, "[20]": {"test_system": "Streptomyces fimicarius ATCC21900", "description": "as §1, §2"}, "[21]": {"test_system": "Streptomyces chartreusis ATCC21901", "description": "as §1, §2"}, "[22]": {"test_system": "Streptomyces griseus ATCC12475", "description": "as §1, §2"}, "[23]": {"test_system": "Streptomyces kasugaensis IFO13851", "description": "as §1, §2"}, "[24]": {"test_system": "Streptomyces cacaoiasoensis IFO13813", "description": "as §1, §2"}, "[25]": {"test_system": "Streptomyces achromogenes IFO12735", "description": "as §1, §2"}, "[26]": {"test_system": "Streptomyces phaeochromogenes IFO12898", "description": "as §1, §2"}, "[27]": {"test_system": "Streptomyces lydicus IFO13058", "description": "as §1, §2"}, "[28]": {"test_system": "Streptomyces afghaniensis IFO12831", "description": "as §1, §2"}, "[29]": {"test_system": "Streptomyces griseus ATCC10137", "description": "as §1, §2"}, "[30]": {"test_system": "Saccharopolyspora taberi JCM9383T", "description": "as §1, §2"}, "[31]": {"test_system": "Streptomyces griseus ATCC15395", "description": "as §1, §2"}, "[32]": {"test_system": "Streptomyces griseus ATCC11429", "description": "as §1, §2"}, "[33]": {"test_system": "Streptomyces griseus IFO3102", "description": "as §1, §2"}, "[34]": {"test_system": "Streptomyces purpurascens ATCC25489", "description": "as §1, §2"}, "[35]": {"test_system": "Streptomyces erythreus ATCC11635", "description": "as §1, §2"}, "[36]": {"test_system": "Streptomyces rimosus ATCC10970", "description": "as §1, §2"}}}
{"smiles": "C[C@@H](Oc1cc(-n2c(=O)cc(C(F)(F)F)n(C)c2=O)c(F)cc1Cl)C(=O)O", "note": "[compound (II)]", "values": [{"measurement": "concentration of compound (II)", "setting": "[1]", "value": 90.1, "unit": "ppm"}, {"measurement": "concentration of compound (II)", "setting": "[2]", "value": 88.3, "unit": "ppm"}, {"measurement": "concentration of compound (II)", "setting": "[3]", "value": 92.4, "unit": "ppm"}, {"measurement": "concentration of compound (II)", "setting": "[4]", "value": 13.0, "unit": "ppm"}, {"measurement": "concentration of compound (II)", "setting": "[5]", "value": 54.6, "unit": "ppm"}, {"measurement": "concentration of compound (II)", "setting": "[6]", "value": 65.3, "unit": "ppm"}, {"measurement": "concentration of compound (II)", "setting": "[7]", "value": 53.9, "unit": "ppm"}, {"measurement": "concentration of compound (II)", "setting": "[8]", "value": 51.7, "unit": "ppm"}, {"measurement": "concentration of compound (II)", "setting": "[9]", "value": 79.9, "unit": "ppm"}, {"measurement": "concentration of compound (II)", "setting": "[10]", "value": 83.9, "unit": "ppm"}, {"measurement": "concentration of compound (II)", "setting": "[11]", "value": 81.9, "unit": "ppm"}, {"measurement": "concentration of compound (II)", "setting": "[12]", "value": 18.4, "unit": "ppm"}, {"measurement": "concentration of compound (II)", "setting": "[13]", "value": 71.8, "unit": "ppm"}, {"measurement": "concentration of compound (II)", "setting": "[14]", "value": 85.3, "unit": "ppm"}, {"measurement": "concentration of compound (II)", "setting": "[15]", "value": 49.5, "unit": "ppm"}, {"measurement": "concentration of compound (II)", "setting": "[16]", "value": 0, "unit": "ppm"}, {"measurement": "concentration of compound (II)", "setting": "[17]", "value": 89.6, "unit": "ppm"}, {"measurement": "concentration of compound (II)", "setting": "[18]", "value": 74.2, "unit": "ppm"}, {"measurement": "concentration of compound (II)", "setting": "[19]", "value": 12.8, "unit": "ppm"}, {"measurement": "concentration of compound (II)", "setting": "[20]", "value": 46.5, "unit": "ppm"}, {"measurement": "concentration of compound (II)", "setting": "[21]", "value": 61.1, "unit": "ppm"}, {"measurement": "concentration of compound (II)", "setting": "[22]", "value": 51.1, "unit": "ppm"}, {"measurement": "concentration of compound (II)", "setting": "[23]", "value": 66.3, "unit": "ppm"}, {"measurement": "concentration of compound (II)", "setting": "[24]", "value": 77.8, "unit": "ppm"}, {"measurement": "concentration of compound (II)", "setting": "[25]", "value": 0.0, "unit": "ppm"}, {"measurement": "concentration of compound (II)", "setting": "[26]", "value": 46.4, "unit": "ppm"}, {"measurement": "concentration of compound (II)", "setting": "[27]", "value": 62.0, "unit": "ppm"}, {"measurement": "concentration of compound (II)", "setting": "[28]", "value": 80.6, "unit": "ppm"}, {"measurement": "concentration of compound (II)", "setting": "[29]", "value": 65.6, "unit": "ppm"}, {"measurement": "concentration of compound (II)", "setting": "[30]", "value": 82.9, "unit": "ppm"}, {"measurement": "concentration of compound (II)", "setting": "[31]", "value": 75.2, "unit": "ppm"}, {"measurement": "concentration of compound (II)", "setting": "[32]", "value": 30.3, "unit": "ppm"}, {"measurement": "concentration of compound (II)", "setting": "[33]", "value": 22.6, "unit": "ppm"}, {"measurement": "concentration of compound (II)", "setting": "[34]", "value": 70.9, "unit": "ppm"}, {"measurement": "concentration of compound (II)", "setting": "[35]", "value": 54.6, "unit": "ppm"}, {"measurement": "concentration of compound (II)", "setting": "[36]", "value": 70.9, "unit": "ppm"}]}
